According to ChEMBL document CHEMBL3407491, “Synthesis, characterization and in vitro photodynamic antimicrobial activity of basic amino acid-porphyrin conjugates” (Eur J Med Chem, 2015):
Converted amounts (≈) assume the structure as drawn. The source made the active and inactive calls. The calls are words filed in the database; no cut-off is given here.

Legend:
Staphylococcus aureus [1] = test: Antibacterial activity against methicillin-resistant Staphylococcus aureus incubated in dark for 30 mins measured after 24 hrs; format: functional
[2] = Octanol water partition coefficient, log P of the compound by reverse-phase thin-layer chromatography; format: physicochemical
Escherichia coli [3] = test: Antibacterial activity against Escherichia coli ATCC 25922 incubated in dark for 30 mins and grown for 24 hrs followed by further incubation on LB agar plates for another 24 hrs; format: functional
[4] = Photostability at 2 x 10^-5 mol/L exposed to 4.2 mW/cm2 light energy density assessed as change in absorption spectra after 30 mins post irradiation; format: physicochemical; settings: 0.5 h, 20 µM
Pseudomonas aeruginosa [5] = test: Antibacterial activity against Pseudomonas aeruginosa ATCC 27853 incubated in dark for 30 mins and grown for 24 hrs followed by further incubation on LB agar plates for another 24 hrs; format: functional
Staphylococcus aureus [6] = test: Antibacterial activity against methicillin-resistant Staphylococcus aureus incubated in dark for 30 mins and grown for 24 hrs followed by further incubation on LB agar plates for another 24 hrs; format: functional
Staphylococcus aureus [7] = test: Bactericidal activity against methicillin-resistant Staphylococcus aureus incubated in dark for 30 mins followed by exposure to light fluences at 650 nm and 6 J/cm2 and then incubated overnight followed by further incubation on LB agar plates for another 24 hrs; format: functional; settings: light or radiation study
Staphylococcus aureus [8] = test: Antibacterial activity against methicillin-resistant Staphylococcus aureus incubated in dark for 30 mins followed by exposure to light fluences at 650 nm and 6 J/cm2 and then incubated overnight measured after 24 hrs; format: functional; settings: light or radiation study
Escherichia coli [9] = test: Bactericidal activity against Escherichia coli ATCC 25922 incubated in dark for 30 mins followed by exposure to light fluences at 650 nm and 6 J/cm2 and then incubated overnight followed by further incubation on LB agar plates for another 24 hrs; format: functional; settings: ATCC 25922, light or radiation study
Pseudomonas aeruginosa [10] = test: Antibacterial activity against Pseudomonas aeruginosa ATCC 27853 assessed as log reduction in bacterial count at 10 uM incubated in dark for 30 mins followed by exposure to light fluences at 650 nm and 6 J/cm2 and then incubated overnight measured after 24 hrs; format: functional
Escherichia coli [11] = test: Antibacterial activity against Escherichia coli ATCC 25922 incubated in dark for 30 mins followed by exposure to light fluences at 650 nm and 6 J/cm2 and then incubated overnight measured after 24 hrs; format: functional; settings: ATCC 25922, light or radiation study
[12] = Singlet oxygen generation of the compound exposed to 4.2 mW/cm2 light energy density assessed as singlet oxygen quantum yield measured at 410 nm in 10 seconds intervals of irradiation at 0.2 uM by DPBF scavenger based assay
Escherichia coli [13] = test: Antibacterial activity against Escherichia coli ATCC 25922 assessed as log reduction in bacterial count at 10 uM incubated in dark for 30 mins followed by exposure to light fluences at 650 nm and 6 J/cm2 and then incubated overnight measured after 24 hrs; format: functional
Pseudomonas aeruginosa [14] = test: Antibacterial activity against Pseudomonas aeruginosa ATCC 27853 incubated in dark for 30 mins measured after 24 hrs; format: functional
Pseudomonas aeruginosa [15] = test: Bactericidal activity against Pseudomonas aeruginosa ATCC 27853 incubated in dark for 30 mins followed by exposure to light fluences at 650 nm and 6 J/cm2 and then incubated overnight followed by further incubation on LB agar plates for another 24 hrs; format: functional; settings: ATCC 27853, light or radiation study
Escherichia coli [16] = test: Antibacterial activity against Escherichia coli ATCC 25922 incubated in dark for 30 mins measured after 24 hrs; format: functional
Pseudomonas aeruginosa [17] = test: Antibacterial activity against Pseudomonas aeruginosa ATCC 27853 incubated in dark for 30 mins followed by exposure to light fluences at 650 nm and 6 J/cm2 and then incubated overnight measured after 24 hrs; format: functional; settings: ATCC 27853, light or radiation study
Staphylococcus aureus [18] = test: Antibacterial activity against methicillin-resistant Staphylococcus aureus assessed as log reduction in bacterial count at 10 uM incubated in dark for 30 mins followed by exposure to light fluences at 650 nm and 6 J/cm2 and then incubated overnight measured after 24 hrs; format: functional
Pseudomonas aeruginosa [19] = test: Drug uptake in Pseudomonas aeruginosa ATCC 27853 at 12.5 uM by confocal laser scanning microscopy; format: ADME, organism-based; settings: in vivo
Staphylococcus aureus [20] = test: Drug uptake in methicillin-resistant Staphylococcus aureus at 12.5 uM by confocal laser scanning microscopy; format: ADME, organism-based; settings: in vivo
Pseudomonas aeruginosa [21] = test: Antibacterial activity against Pseudomonas aeruginosa ATCC 27853 assessed as log reduction in bacterial count at 3.5 uM incubated in dark for 30 mins followed by exposure to light fluences at 650 nm and 6 J/cm2 and then incubated overnight measured after 24 hrs; format: functional
Pseudomonas aeruginosa [22] = test: Antibacterial activity against Pseudomonas aeruginosa ATCC 27853 at 0.49 uM to 7.8 uM incubated in dark for 30 mins followed by exposure to light fluences at 650 nm and 6 J/cm2 and then incubated overnight measured after 24 hrs; format: functional, organism-based
Escherichia coli [23] = test: Antibacterial activity against Escherichia coli ATCC 25922 assessed as log reduction in bacterial count at 2 uM incubated in dark for 30 mins followed by exposure to light fluences at 650 nm and 6 J/cm2 and then incubated overnight measured after 24 hrs; format: functional
Escherichia coli [24] = test: Drug uptake in Escherichia coli ATCC 25922 at 12.5 uM by confocal laser scanning microscopy; format: ADME, organism-based; settings: in vivo
[25] = Toxicity against human […] cells irradiated with 6 J/cm2 radiation assessed as cell viability at 7.81 uM by MTT assay; format: cell-based; settings: read-out: Activity
Escherichia coli [26] = test: Antibacterial activity against Escherichia coli ATCC 25922 at 0.49 uM to 7.8 uM incubated in dark for 30 mins followed by exposure to light fluences at 650 nm and 6 J/cm2 and then incubated overnight measured after 24 hrs; format: functional, organism-based
Pseudomonas aeruginosa [27] = test: Antibacterial activity against Pseudomonas aeruginosa ATCC 27853 assessed as log reduction in bacterial count at 7.81 uM incubated in dark for 30 mins followed by exposure to light fluences at 650 nm and 6 J/cm2 and then incubated overnight measured after 24 hrs; format: functional, organism-based
Pseudomonas aeruginosa [28] = test: Antibacterial activity against Pseudomonas aeruginosa ATCC 27853 at 3.91 uM to 62.50 uM incubated in dark for 30 mins followed by exposure to light fluences at 650 nm and 6 J/cm2 and then incubated overnight measured after 24 hrs; format: functional, organism-based
[29] = Toxicity against human […] cells assessed as cell viability at 3.91 to 62.5 uM under dark conditions by MTT assay; format: cell-based; settings: read-out: Activity
[30] = Stability in mouse serum assessed as compound remaining after 24 hrs by RP-HPLC method; format: ADME; settings: read-out: Stability
Escherichia coli [31] = test: Antibacterial activity against Escherichia coli ATCC 25922 assessed as log reduction in bacterial count at 7.81 uM incubated in dark for 30 mins followed by exposure to light fluences at 650 nm and 6 J/cm2 and then incubated overnight measured after 24 hrs; format: functional, organism-based
[32] = Toxicity against human […] cells assessed as reduction in cell viability by MTT assay; format: cell-based
Escherichia coli [33] = test: Antibacterial activity against Escherichia coli ATCC 25922 at 3.91 uM to 62.50 uM incubated in dark for 30 mins followed by exposure to light fluences at 650 nm and 6 J/cm2 and then incubated overnight measured after 24 hrs; format: functional, organism-based
Staphylococcus aureus [34] = test: Antibacterial activity against methicillin-resistant Staphylococcus aureus assessed as log reduction in bacterial count at 2 uM incubated in dark for 30 mins followed by exposure to light fluences at 650 nm and 6 J/cm2 and then incubated overnight measured after 24 hrs; format: functional
Staphylococcus aureus [35] = test: Antibacterial activity against methicillin-resistant Staphylococcus aureus at 0.49 uM to 7.8 uM incubated in dark for 30 mins followed by exposure to light fluences at 650 nm and 6 J/cm2 and then incubated overnight measured after 24 hrs; format: functional, organism-based

Row | Structure (SMILES) | MIC (Staphylococcus aureus [1]) [µM] | logP [2] | MBC (Escherichia coli [3]) [µM] | Activity [4] [%] | MBC (Pseudomonas aeruginosa [5]) [µM] | MBC (Staphylococcus aureus [6]) [µM] | MBC (Staphylococcus aureus [7]) [µM] | MIC (Staphylococcus aureus [8]) [µM] | MBC (Escherichia coli [9]) [µM] | log reduction in bacterial count (Pseudomonas aeruginosa [10]) | MIC (Escherichia coli [11]) [µM] | Activity [12] | log reduction in bacterial count (Escherichia coli [13]) | MIC (Pseudomonas aeruginosa [14]) [µM] | MBC (Pseudomonas aeruginosa [15]) [µM] | MIC (Escherichia coli [16]) [µM] | MIC (Pseudomonas aeruginosa [17]) [µM] | Log reduction in bacterial count (Staphylococcus aureus [18]) | Drug uptake (Pseudomonas aeruginosa [19]) | Drug uptake (Staphylococcus aureus [20]) | further results
1 | NCCCC[C@H](N)C(=O)Nc1ccc(-c2c3nc(c(-c4ccc(N)cc4)c4ccc([nH]4)c(-c4ccc(NC(=O)[C@@H](N)CCCCN)cc4)c4nc(c(-c5ccc(N)cc5)c5ccc2[nH]5)C=C4)C=C3)cc1 | 125 (≈ 116 µg/mL) | 1.3 | 500 (≈ 466 µg/mL) | < 20 | 500 (≈ 466 µg/mL) | 250 (≈ 233 µg/mL) | 15.6 (≈ 14.6 µg/mL) | 7.81 (≈ 7.27 µg/mL) | 31.2 (≈ 29.1 µg/mL) | >5 | 15.6 (≈ 14.6 µg/mL) | 0.79 | 2 | 250 (≈ 233 µg/mL) | 31.2 (≈ 29.1 µg/mL) | 250 (≈ 233 µg/mL) | 15.6 (≈ 14.6 µg/mL) | 3 | – | – | –
2 | NCCCC[C@H](N)C(=O)Nc1ccc(-c2c3nc(c(-c4ccccc4)c4ccc([nH]4)c(-c4ccc(NC(=O)[C@@H](N)CCCCN)cc4)c4nc(c(-c5ccccc5)c5ccc2[nH]5)C=C4)C=C3)cc1 | 125 (≈ 113 µg/mL) | 1.37 | 125 (≈ 113 µg/mL) | < 20 | 125 (≈ 113 µg/mL) | 250 (≈ 225 µg/mL) | 31.2 (≈ 28.2 µg/mL) | 15.6 (≈ 14.1 µg/mL) | 31.2 (≈ 28.2 µg/mL) | >5 | 15.6 (≈ 14.1 µg/mL) | 0.57 | 2 | 62.5 (≈ 56.3 µg/mL) | 62.5 (≈ 56.3 µg/mL) | 62.5 (≈ 56.3 µg/mL) | 31.2 (≈ 28.2 µg/mL) | 3 | – | – | –
3 | NCCCC[C@H](N)C(=O)Nc1ccc(-c2c3nc(c(-c4ccc(NC(=O)[C@@H](N)CCCCN)cc4)c4ccc([nH]4)c(-c4ccccc4)c4nc(c(-c5ccccc5)c5ccc2[nH]5)C=C4)C=C3)cc1 | 62.5 (≈ 56.3 µg/mL) | 1.39 | 250 (≈ 225 µg/mL) | < 20 | 125 (≈ 113 µg/mL) | 125 (≈ 113 µg/mL) | 62.5 (≈ 56.3 µg/mL) | 31.2 (≈ 28.2 µg/mL) | 62.5 (≈ 56.3 µg/mL) | >5 | 31.2 (≈ 28.2 µg/mL) | 0.65 | 2 | 62.5 (≈ 56.3 µg/mL) | 62.5 (≈ 56.3 µg/mL) | 125 (≈ 113 µg/mL) | 31.2 (≈ 28.2 µg/mL) | 3 | – | – | –
4 | NCCCC[C@H](N)C(=O)Nc1ccc(-c2c3nc(c(-c4ccc(NC(=O)[C@@H](N)CCCCN)cc4)c4ccc([nH]4)c(-c4ccc(NC(=O)[C@@H](N)CCCCN)cc4)c4nc(c(-c5ccc(N)cc5)c5ccc2[nH]5)C=C4)C=C3)cc1 | 125 (≈ 132 µg/mL) | 1.21 | > 500 | < 20 | > 500 | 500 (≈ 530 µg/mL) | 62.5 (≈ 66.2 µg/mL) | 31.2 (≈ 33.1 µg/mL) | 31.2 (≈ 33.1 µg/mL) | 1 | 15.6 (≈ 16.5 µg/mL) | 0.73 | 3 | 250 (≈ 265 µg/mL) | 62.5 (≈ 66.2 µg/mL) | 125 (≈ 132 µg/mL) | 31.2 (≈ 33.1 µg/mL) | 3 | – | – | –
5 | NCCCC[C@H](N)C(=O)Nc1ccc(-c2c3nc(c(-c4ccc(NC(=O)[C@@H](N)CCCCN)cc4)c4ccc([nH]4)c(-c4ccc(NC(=O)[C@@H](N)CCCCN)cc4)c4nc(c(-c5ccc(NC(=O)[C@@H](N)CCCCN)cc5)c5ccc2[nH]5)C=C4)C=C3)cc1 | 62.5 (≈ 74.2 µg/mL) | 0.9 | 125 (≈ 148 µg/mL) | < 20 | > 500 | 125 (≈ 148 µg/mL) | 7.81 (≈ 9.27 µg/mL) | 3.91 (≈ 4.64 µg/mL) | 3.91 (≈ 4.64 µg/mL) | – | 1.95 (≈ 2.32 µg/mL) | 0.95 | – | 250 (≈ 297 µg/mL) | 15.6 (≈ 18.5 µg/mL) | 62.5 (≈ 74.2 µg/mL) | 7.81 (≈ 9.27 µg/mL) | – | Active | Active | FC (Pseudomonas aeruginosa [21]): 3; Activity (Pseudomonas aeruginosa [22]): Dose-dependent effect; FC (Escherichia coli [23]): 3; Drug uptake (Escherichia coli [24]): Active; viability at 7.81 µM [25]: > 85%; Activity (Escherichia coli [26]): Dose-dependent effect; Activity (Pseudomonas aeruginosa [27]): Active; Activity (Pseudomonas aeruginosa [28]): Dose-dependent effect; viability at 62.5 µM [29]: > 90%; remaining at 24 h [30]: 85%; Activity (Escherichia coli [31]): Active; Activity [32]: Dose-dependent effect; Activity (Escherichia coli [33]): Dose-dependent effect; FC (Staphylococcus aureus [34]): 3; Activity (Staphylococcus aureus [35]): Dose-dependent effect
6 | NCCCC[C@H](N)C(=O)Nc1ccc(-c2c3nc(c(-c4ccccc4)c4ccc([nH]4)c(-c4ccccc4)c4nc(c(-c5ccccc5)c5ccc2[nH]5)C=C4)C=C3)cc1 | > 500 | 1.69 | > 500 | < 20 | > 500 | > 500 | > 500 | 500 (≈ 379 µg/mL) | > 500 | – | 500 (≈ 379 µg/mL) | 0.83 | – | 500 (≈ 379 µg/mL) | 500 (≈ 379 µg/mL) | > 500 | 250 (≈ 189 µg/mL) | – | Not Active | Not Active | Drug uptake (Escherichia coli [24]): Not Active
